Each structure is given as a SMILES string. Where two headings read alike, the source gives them in different places.

The term solubility denotes the dissolved amount per volume that the medium holds. The term AUC(0-inf) denotes the area under the concentration-time curve extrapolated to infinity. The Cmax is the maximum level reached in the sampled fluid or tissue. As usually defined, the logD is lipophilicity at a set pH, counting ionised and neutral species.

A short description of data set [1]: solubility in simulated fasted-state intestinal fluid. The class given is physicochemical. As to conditions: fassif. On the procedure: (§1) Even in its amorphous state, the apparent solubility of neat amorphous Compound […] in simulated fasted-state intestinal fluid is 50 μg/mL after two hours of equilibration. In order to enable absorption of Compound III, solid dispersion formulations of Compound III were formulated at a drug loading less than or equal to 40% in combination with absorption-enhancing polymers and surfactants as described in U.S. Provisional Patent Application No. 61/936,019, filed Feb. 5, 2014; PCT International Patent Application Nos. PCT/US2015/014195 and PCT/US2015/014201, filed Feb. 3, 2015.

Data set [2] in a line: human clinical trial, pharmacokinetics of Tablet Formulation 6 and Tablet Formulation 7, fasted and fed. As to conditions: in vivo, GM; for AUC(0-t): read-out: AUC0-24 hr.
The nature of data set [3]: log D of Compound III. It counts as physicochemical. The settings on record: pH=7. The method, then: as §1
Where [4] appears, read: administered as Tablet Formulation 6, single dose of two tablets, Fasted.
[5] abbreviates: administered as Tablet Formulation 6, single dose of two tablets, Fed (High-Fat Meal).
Where [6] appears, read: administered as Tablet Formulation 7, single dose of two tablets, Fasted.
Where [7] appears, read: administered as Tablet Formulation 7, single dose of two tablets, Fed (High-Fat Meal).
Where [8] appears, read: oral, administered as Tablet Formulation 6, single dose of two tablets, Fasted.
Setting [9] is: oral, administered as Tablet Formulation 6, single dose of two tablets, Fed (High-Fat Meal).
[10] abbreviates: oral, administered as Tablet Formulation 7, single dose of two tablets, Fasted.
[11] abbreviates: oral, administered as Tablet Formulation 7, single dose of two tablets, Fed (High-Fat Meal).

On to `CC(C)OC(=O)[C@@H](C)NP(=O)(OC[C@H]1O[C@@H](n2ccc(=O)[nH]c2=O)[C@](C)(Cl)[C@@H]1O)Oc1ccccc1` (stereo partly drawn) [Compound I, (2R)-isopropyl 2-(((((2R,3R,4R,5R)-4-chloro-5-(2,4-dioxo-3,4-dihydropyrimidin-1(2H)-yl)-3-hydroxy-4-methyltetrahydrofuran-2-yl)methoxy)(phenoxy)phosphoryl)amino)propanoate], for which the solubility at 2 h in data set [1] (thermodynamic from solid, after two hours of equilibration, read-out: apparent solubility of neat amorphous compound) is 50 µg/mL. For the same molecule, the AUC(0-inf) in data set [2] (setting [4]) was found to be 2.73 µM·h; in data set [2] (setting [5]) it was 3.91 µM·h; in data set [2] (setting [6]), 3.01 µM·h; in data set [2] (setting [7]) it was 4.08 µM·h. Besides, the Cmax in data set [2] (setting [4]) is 900 nM; in data set [2] (setting [5]) it was 1420 nM; in data set [2] (setting [6]) it was 897 nM; in data set [2] (setting [7]), 1740 nM. Also, the AUC(0-t) in data set [2] (setting [4]) is 2.63 µM·h; in data set [2] (setting [5]), 3.85 µM·h; in data set [2] (setting [6]), 2.91 µM·h; in data set [2] (setting [7]), 4.36 µM·h.

As to `COC(=O)N[C@H](C(=O)N1CCC[C@H]1c1ncc(-c2cc(F)c3c(c2)O[C@@H](c2cnc(C4CC4)s2)n2c-3cc3cc(-c4cnc([C@@H]5CCCN5C(=O)[C@@H](NC(=O)OC)C(C)C)[nH]4)ccc32)[nH]1)C(C)C` [Compound II, dimethyl ((2S,2′S)-((2S,2′S)-2,2′-(5,5′-((S)-6-(2-cyclopropylthiazol-5-yl)-1-fluoro-6H-benzo[5,6][1,3]oxazino[3,4-a]indole-3,10-diyl)bis(1H-imidazole-5,2-diyl))bis(pyrrolidine-2,1-diyl))bis(3-methyl-1-oxobutane-2,1-diyl))dicarbamate], the AUC(0-inf) in data set [2] (setting [8]) turned out to be 0.942 µM·h; in data set [2] (setting [9]), 1.11 µM·h; in data set [2] (setting [10]), 1.31 µM·h; in data set [2] (setting [11]), 1.2 µM·h. Further, the Cmax in data set [2] (setting [8]) came to 57 nM; in data set [2] (setting [9]), 68.1 nM; in data set [2] (setting [10]), 77.2 nM; in data set [2] (setting [11]), 78.7 nM. Besides, the AUC(0-t) in data set [2] (setting [8]) stood at 0.572 µM·h; in data set [2] (setting [9]) it was 0.658 µM·h; in data set [2] (setting [10]), 0.783 µM·h; in data set [2] (setting [11]), 0.716 µM·h.

For `C=C[C@@H]1C[C@]1(NC(=O)[C@@H]1C[C@@H]2CN1C(=O)[C@H](C(C)(C)C)NC(=O)O[C@@H]1C[C@H]1CCCCCc1nc3ccc(OC)cc3nc1O2)C(=O)NS(=O)(=O)C1CC1` [Compound III, (1aR,5S,8S,10R,22aR)—N-[(1R,2S)-1-[(cyclopropylsulfonamido)carbonyl]-2-ethenylcyclopropyl]-14-methoxy-5-(2-methylpropan-2-yl)-3,6-dioxo-1,1a,3,4,5,6,9,10,18,19,20,21,22,22a-tetradecahydro-8H-7,10-methanocyclopropa[18,19][1,10,3,6]dioxadiazacyclononadecino[11,12-b]quinoxaline-8-carboxamide hydrate], the solubility in data set [1] was less than 7 µg/mL. Besides, the total exposure AUC(0-inf) in data set [2] (setting [8]) worked out at 0.508 µM·h; in data set [2] (setting [9]) it was 0.628 µM·h; in data set [2] (setting [10]) it was 0.598 µM·h; in data set [2] (setting [11]) it was 0.733 µM·h. The maximum concentration (Cmax) worked out at 25.6 nM in data set [2] (setting [8]), 44.3 nM in data set [2] (setting [9]), 31.2 nM in data set [2] (setting [10]) and 61.2 nM in data set [2] (setting [11]). The AUC(0-t) in data set [2] (setting [8]) was determined as 0.218 µM·h; in data set [2] (setting [9]) it was 0.33 µM·h; in data set [2] (setting [10]) it was 0.285 µM·h; in data set [2] (setting [11]) it was 0.38 µM·h. Also, in data set [3], the logD was approximately 3.

The record behind these values is patent publication US20180228826A1, “FIXED-DOSE COMBINATIONS OF ANTIVIRAL COMPOUNDS” (priority 2015, published 2018).
